A word on the melting point: it is the temperature, or range, at which the solid turns liquid. As a reminder, the Ki is a dissociation constant, usually derived from enzyme kinetics or from competition with a known ligand. The EC50 is the midpoint of the concentration-response curve.

Counter-ions that a name gives are not always drawn. Like-named read-outs stand apart in the source and are kept apart here.

One data set addresses T1, 5-HT2C receptor (Homo sapiens, UniProt P28335).
T1 construct: expressed in transfected cells; host or cells: CHO cell line
T1 sequence (P28335 33-458): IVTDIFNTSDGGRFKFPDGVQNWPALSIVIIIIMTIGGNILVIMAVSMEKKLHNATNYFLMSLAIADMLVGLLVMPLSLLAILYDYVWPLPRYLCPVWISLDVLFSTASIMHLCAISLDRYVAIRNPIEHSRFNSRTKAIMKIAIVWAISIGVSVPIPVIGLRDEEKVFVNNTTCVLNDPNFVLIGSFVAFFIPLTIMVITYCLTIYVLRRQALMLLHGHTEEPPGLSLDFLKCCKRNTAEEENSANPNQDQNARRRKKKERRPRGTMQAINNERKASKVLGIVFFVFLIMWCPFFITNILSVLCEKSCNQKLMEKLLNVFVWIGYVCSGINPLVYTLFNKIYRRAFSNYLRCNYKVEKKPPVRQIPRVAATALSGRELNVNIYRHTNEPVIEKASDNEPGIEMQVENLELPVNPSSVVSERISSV
The data set can be described thus: Radioligand binding to the 5-HT2C receptor ([3H]-5-HT, CHO cell line). On the procedure:
(§1) 1. Binding to Serotonin Receptors
(§2) The binding of compounds of formula (I) to serotonin receptors was determined in vitro by standard methods. The preparations were investigated in accordance with the assays given hereinafter.
Method (a): For the binding to the 5-HT2C receptor the 5-HT2C receptors were radiolabelled with [^3H]-5-HT. The affinity of the compounds for 5-HT2C receptors in a CHO cell line was determined according to the procedure of D. Hoyer, G. Engel and H.O. Kalkman, European J. Pharmacol., 1985, 118, 13-23.

The next data set has as its target T2, 5-HT2A receptor (Homo sapiens, UniProt P28223).
T2 construct: expressed in transfected cells; host or cells: CHO cell line
In words: Radioligand binding to the 5-HT2A receptor ([125I]-DOI, CHO cell line). As for the experimental part: as §1, §2
Method (c): For the binding to the 5-HT2A receptor the 5-HT2A receptors were radiolabelled with [^125I]-DOI. The affinity of the compounds for 5-HT2A receptors in a CHO cell line was determined according to the procedure of D. J. McKenna and S. J. Peroutka, J. Neurosci., 1989, 9/10, 3482-90.

The target in another data set is T3, human 5-HT2B receptors (Homo sapiens, UniProt P41595).
T3 construct: expressed in transfected cells; host or cells: CHO cell line
The data set can be described thus: Radioligand binding to the 5-HT2B receptor ([3H]-5-HT, CHO cell line). On the procedure: as §1, §2
Method (b): For the binding to the 5-HT2B receptor the 5-HT2B receptors were radiolabelled with [^3H]-5-HT. The affinity of the compounds for human 5-HT2B receptors in a CHO cell line was determined according to the procedure of K. Schmuck, C. Ullmer, P. Engels and H. Lubbert, FEBS Lett., 1994, 342, 85-90.

The target of another data set is T4, h5-HT2A receptors (Homo sapiens, UniProt P28223).
T4 construct: expressed in transfected cells; host or cells: CHO cells
The data set can be described thus: Functional activity, FLIPR calcium assay in CHO cells expressing h5-HT2A. The format is cell-based. The settings on record: for Emax: CHO, read-out: h5-HT2A Relative Efficacy; for EC50: FLIPR, CHO cells. On the procedure:
(§3) The functional activity of compounds of formula (I) was assayed using a Fluorimetric Imaging Plate reader (FLIPR) in the following manner.
(§4) CHO cells expressing either the h5-HT2C or h5-HT2A receptors were counted and plated into standard 96 well microtitre plates before the day of testing to give a confluent monolayer. The following day the cells were dye loaded with the calcium sensitive dye Fluo 3-AM by incubation with serum free culture maintenance media containing pluronic acid and Fluo 3-AM dissolved in DMSO at 37° C. in a CO2 incubator at 95% humidity for approximately 90 minutes. Unincorporated dye was removed by washing with Hanks balanced salt solution containing 20 mM HEPES and 2.5 mM probenecid (the assay buffer) using an automated cell washer to leave a total volume of 100 μL/well.
(§5) The drug (dissolved in 50 μL of assay buffer) was added at a rate of 70 μL/sec to each well of the FLIPR 96 well plate during fluorescence measurements. The measurements are taken at 1 sec intervals and the maximum fluorescent signal was measured (approx 10-15 secs after drug addition) and compared with the response produced by 10 μM 5-HT (defined as 100%) to which it is expressed as a percentage response (relative efficacy). Dose response curves were constructed using Graphpad Prism (Graph Software Inc.).

In the next data set the target is T5, h5-HT2C (Homo sapiens, UniProt P28335).
T5 construct: expressed in transfected cells; host or cells: CHO cells
T5 sequence (P28335 33-458): T1 sequence (P28335 33-458)
The data set can be described thus: Functional activity, FLIPR calcium assay in CHO cells expressing h5-HT2C. The data set is classed as cell-based. The settings on record: for Emax: CHO, read-out: h5-HT2C Relative Efficacy; for EC50: FLIPR, CHO cells. On the procedure: as §3, §4, §5

The mark [1] stands for this setting: maximum fluorescent signal compared with 10 μM 5-HT (defined as 100%).
Where [2] appears, read: [3H]-5-HT, CHO cell line, read-out: Ki(2C).
[3] abbreviates: [125I]-DOI, CHO cell line, read-out: Ki(2A).
Setting [4] is: [3H]-5-HT, human receptor, CHO cell line, read-out: Ki(2B).

T2 sequence (P28223 whole entry): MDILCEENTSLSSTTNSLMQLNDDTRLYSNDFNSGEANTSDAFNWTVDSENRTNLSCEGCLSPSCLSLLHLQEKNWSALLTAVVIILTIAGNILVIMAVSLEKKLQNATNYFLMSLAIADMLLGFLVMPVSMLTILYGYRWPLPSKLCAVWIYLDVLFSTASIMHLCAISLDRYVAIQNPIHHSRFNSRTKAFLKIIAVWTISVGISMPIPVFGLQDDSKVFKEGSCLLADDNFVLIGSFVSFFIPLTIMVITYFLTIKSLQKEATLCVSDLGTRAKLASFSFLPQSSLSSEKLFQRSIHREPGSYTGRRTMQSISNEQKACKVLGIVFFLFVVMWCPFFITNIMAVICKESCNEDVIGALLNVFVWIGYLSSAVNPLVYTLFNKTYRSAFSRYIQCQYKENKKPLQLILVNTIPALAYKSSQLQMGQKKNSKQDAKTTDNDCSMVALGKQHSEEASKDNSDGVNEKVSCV
T4 sequence (P28223 whole entry): as above
T3 sequence (P41595 whole entry): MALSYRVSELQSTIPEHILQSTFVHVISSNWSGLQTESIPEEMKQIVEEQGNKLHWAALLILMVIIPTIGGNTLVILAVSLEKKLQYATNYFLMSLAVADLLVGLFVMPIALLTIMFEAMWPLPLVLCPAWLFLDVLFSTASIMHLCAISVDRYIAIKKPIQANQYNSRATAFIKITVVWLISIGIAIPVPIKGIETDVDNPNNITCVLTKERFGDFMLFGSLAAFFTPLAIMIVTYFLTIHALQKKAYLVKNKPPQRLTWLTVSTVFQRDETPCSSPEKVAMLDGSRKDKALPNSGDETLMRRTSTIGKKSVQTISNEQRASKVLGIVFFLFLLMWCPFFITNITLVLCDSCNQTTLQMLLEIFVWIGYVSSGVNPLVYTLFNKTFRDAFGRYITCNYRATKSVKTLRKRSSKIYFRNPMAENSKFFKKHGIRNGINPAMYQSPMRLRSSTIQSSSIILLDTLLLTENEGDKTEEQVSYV

The compound `C[C@H](N)Cn1c2c(c3cc(F)ccc31)CCC2` (as salt: fumarate) (hydrate or solvate) [Example 2, (S)-1-(7-fluoro-1,2,3,4-tetrahydrocyclopent[b]indol-4-yl)-2-propylamine] gave a melting point of 161 to 162 °C.
Still for that read-out and setting: the result for `C[C@H](N)Cn1c2c(c3c(Cl)cccc31)CCC2` (as salt: fumarate) [Example 4, (S)-1-(8-chloro-1,2,3,4-tetrahydrocyclopent[b]indol-4-yl)-2-propylamine] reads 172 to 173 °C (dec.); that for `COc1ccc2c3c(n(C[C@H](C)N)c2c1)CCC3` (as salt: fumarate) [Example 11, (S)-1-(6-methoxy-1,2,3,4-tetrahydrocyclopent[b]indol-4-yl)-2-propylamine], 182 °C.
Still for that read-out and setting: next, `COc1cc2c(cc1F)c1c(n2C[C@H](C)N)CCC1` (as salt: fumarate) [Example 37, (S)-1-(7-fluoro-6-methoxy-1,2,3,4-tetrahydrocyclopent[b]indol-4-yl)-2-propylamine]: 213 °C (dec.); `C[C@H](N)Cn1c2c(c3ccccc31)CCC2` (as salt: hydrochloride) (hydrate or solvate) [Example 14, (S)-1-(1,2,3,4-tetrahydrocyclopent[b]indol-4-yl)-2-propylamine]: 233 °C.
Take `C[C@H](N)Cn1c2c(c3c(Cl)c(F)ccc31)CCC2` (as salt: hydrochloride) (hydrate or solvate) [Example 18, (S)-1-(8-chloro-7-fluoro-1,2,3,4-tetrahydrocyclopent[b]indol-4-yl)-2-propylamine]: the melting point is 252 to 253 °C.
`C[C@H](N)Cn1c2c(c3c(Cl)cc(Cl)cc31)CCC2` (as salt: hydrochloride) (hydrate or solvate) [Example 26] registered a melting point of 258 °C.
As for `C[C@@H](N)Cn1c2c(c3ccccc31)CCC2` (as salt: hydrochloride) (hydrate or solvate) [Example 30, (R)-1-(1,2,3,4-tetrahydrocyclopent[b]indol-4-yl)-2-propylamine], the melting point was 225 to 231 °C (dec.).
On the same count and under the same terms, the result for `C[C@H](N)Cn1c2c(c3ccc(F)cc31)CCC2` (as salt: hydrochloride) (hydrate or solvate) [Example 31] reads 215 °C; that for `CCSc1ccc2c3c(n(C[C@H](C)N)c2c1)CCC3` (as salt: hydrochloride) [Example 27], 115 to 119 °C.
Take `C[C@H](N)Cn1c2c(c3c(F)c(F)ccc31)CCC2` [Example 1, (S)-1-(7,8-Difluoro-1,2,3,4-tetrahydrocyclopent[b]indol-4-yl)-2-propylamine fumarate]: the Ki at 5-HT2C receptor amounted to 65 nM; on 5-HT2A receptor, 122 nM; on human 5-HT2B receptors, 40 nM. Moreover, the Emax worked out at 0% at h5-HT2A receptors (setting [1]) and 77% at h5-HT2C (setting [1]). Also, the EC50 at h5-HT2C worked out at 272 nM.
For `C[C@H](N)Cn1c2c(c3cc(F)ccc31)CCC2` [Example 2, (S)-1-(7-fluoro-1,2,3,4-tetrahydrocyclopent[b]indol-4-yl)-2-propylamine], the results for the Emax at h5-HT2A receptors (setting [1]) and at h5-HT2C (setting [1]) were 0% and 85%, respectively. The EC50 on h5-HT2C was 347 nM.
For `C[C@H](N)Cn1c2c(c3c(Cl)cccc31)CCC2` [Example 4, (S)-1-(8-chloro-1,2,3,4-tetrahydrocyclopent[b]indol-4-yl)-2-propylamine], the Emax on h5-HT2A receptors (setting [1]) was 60%; at h5-HT2C (setting [1]), 65%. For the same compound, on h5-HT2C, the EC50 is 179 nM.
`COc1ccc2c3c(n(C[C@H](C)N)c2c1)CCC3` [Example 11, (S)-1-(6-methoxy-1,2,3,4-tetrahydrocyclopent[b]indol-4-yl)-2-propylamine]: the Ki came out at 63 nM on 5-HT2C receptor, 314 nM at 5-HT2A receptor and 210 nM on human 5-HT2B receptors. Further, the Emax on h5-HT2A receptors (setting [1]) was 25%; on h5-HT2C (setting [1]) it was 85%. Besides, the EC50 stood at 1690 nM at h5-HT2A receptors and 89 nM at h5-HT2C.
For the compound `C[C@H](N)Cn1c2c(c3ccccc31)CCC2` [Example 14, (S)-1-(1,2,3,4-tetrahydrocyclopent[b]indol-4-yl)-2-propylamine], the Ki at 5-HT2C receptor is 64 nM; at 5-HT2A receptor it was 375 nM; on human 5-HT2B receptors, 180 nM. The Emax at h5-HT2A receptors (setting [1]) came out at 48%; on h5-HT2C (setting [1]), 80%. Also, the EC50 at h5-HT2A receptors was determined as 6250 nM; at h5-HT2C, 252 nM.
Consider `C[C@H](N)Cn1c2c(c3cc(F)c(Cl)cc31)CCC2` [Example 16], for which the results for the Emax at h5-HT2A receptors (setting [1]) and on h5-HT2C (setting [1]) were 0% and 86%, respectively. Also, the EC50 on h5-HT2C amounted to 307 nM.
As for `C[C@H](N)Cn1c2c(c3c(Cl)c(F)ccc31)CCC2` [Example 18, (S)-1-(8-chloro-7-fluoro-1,2,3,4-tetrahydrocyclopent[b]indol-4-yl)-2-propylamine], the Emax on h5-HT2A receptors (setting [1]) amounted to 63%; at h5-HT2C (setting [1]), 75%. Moreover, the EC50 turned out to be 2100 nM at h5-HT2A receptors and 36 nM on h5-HT2C.
Take `C[C@H](N)Cn1c2c(c3c(Cl)cc(Cl)cc31)CCC2` [Example 26]: the Ki on 5-HT2C receptor (setting [2]) amounted to 106 nM; at 5-HT2A receptor (setting [3]), 144 nM; at human 5-HT2B receptors (setting [4]), 127 nM.
Regarding `CCSc1ccc2c3c(n(C[C@H](C)N)c2c1)CCC3` [Example 27], the Ki at 5-HT2C receptor (setting [2]) came to 141 nM; at 5-HT2A receptor (setting [3]), 545 nM; on human 5-HT2B receptors (setting [4]), 496 nM.
On to `C[C@@H](N)Cn1c2c(c3ccccc31)CCC2` [Example 30, (R)-1-(1,2,3,4-tetrahydrocyclopent[b]indol-4-yl)-2-propylamine], for which the Ki on 5-HT2C receptor came out at 19 nM; at 5-HT2A receptor it was 48 nM; at human 5-HT2B receptors it was 31 nM. Moreover, the Emax on h5-HT2A receptors (setting [1]) is 43%; at h5-HT2C (setting [1]), 72%. Besides, the concentration giving a half-maximal response (EC50) is 361 nM on h5-HT2A receptors and 90 nM at h5-HT2C.
Regarding `C[C@H](N)Cn1c2c(c3ccc(F)cc31)CCC2` [Example 31], the Ki turned out to be 65 nM at 5-HT2C receptor, 550 nM on 5-HT2A receptor (setting [3]) and 161 nM at human 5-HT2B receptors (setting [4]).
Consider `CC(N)Cn1c2c(c3cc(F)c(F)cc31)CCC2` (stereo not shown) [Example 33], for which the inhibition constant Ki on 5-HT2C receptor was 63 nM; on 5-HT2A receptor it was 233 nM; on human 5-HT2B receptors, 152 nM. The results for the Emax at h5-HT2A receptors (setting [1]) and at h5-HT2C (setting [1]) were 22% and 81%, respectively. In addition, the EC50 on h5-HT2C is 316 nM.
With `COc1c(F)ccc2c1c1c(n2C[C@H](C)N)CCC1` [Example 42, (S)-1-(7-fluoro-8-methoxy-1,2,3,4-tetrahydrocyclopent[b]indol-4yl)-2-propylamine], the values for the Emax at h5-HT2A receptors (setting [1]) and at h5-HT2C (setting [1]) were 51% and 74%, respectively. The EC50 on h5-HT2A receptors worked out at 805 nM; on h5-HT2C, 87 nM.
As to “(R)-1-(7-Fluoro-1,2,3,4-tetrahydro-6-methoxy-cyclopent[b]indol-4-yl)-2-propylamine, hemifumarate [Example 36]”, the half-maximal effective concentration (EC50) on h5-HT2A receptors worked out at 1340 nM; on h5-HT2C, 189 nM. The “h5-HT2A Relative Efficacy” value on h5-HT2A receptors (setting [1]) was found to be 25%. For the same compound, the “h5-HT2C Relative Efficacy” value on h5-HT2C (setting [1]) is reported as 64%.
